Test results taken from patent US9993522B2, “Treatment of pain by inhibition of USP5 de-ubiquitinase” (UTI LIMITED PARTNERSHIP, priority 2012, dated 2018).
Residues, ends and D or L forms follow the SMILES beside them. *: point of attachment. Cbz = O=C(OCc1ccccc1)*

Key:
Cav3.2 channels [1] = experiment: Cav3.2 ubiquitination in cultured mouse DRG neurons (immunoprecipitation, anti-ubiquitin western blot); assay type: cell-based; conditions: 5 μM MG132 overnight
Cav3.2 channels [2] = experiment: Ubiquitination state of Cav3.2 channels in CAD cells with proteasomal inhibitor (western blot densitometry); assay type: cell-based; conditions: 5 μM MG132, CAD cells, mean±SEM
Experimental: Human embryonic kidney tsA-201 cells were cultured as described previously (Altier et al., 2006). Cells were transfected with calcium phosphate and used for biochemical analysis 72 hrs post-transfection. Neuronal derived CAD cells were cultured as described previously (Altier et al., 2011). These cells were transfected with Lipofectamine 2000 (Invitrogen) and used for biochemical and electrophysiological experiments 48-72 hrs post-transfection. Both tsA-201 and CAD cells were preincubated with 5 μM MG132 (MG) or 100 μM Chloroquine (Chl) overnight.
Cells were lysed in RIPA buffer (in mM; 50 Tris, 100 NaCl, 1% triton X-100, 1% NP-40, 0.2% SDS, 0.1% NaDeoxycholate, 20 NaF, 10 Na4P2O7 pyrophosphate, 10 EDTA+protease inhibitor cocktail, pH 7.5). A modified RIPA buffer (in mM; 50 Tris, 100 NaCl, 0.2% (v/v) triton X-100, 0.2% (v/v) NP-40, 10 EDTA+protease inhibitor cocktail, with or without 5 μM MG132 pH 7.5) was used to co-immunoprecipitate Cav3.2 channels with USP5 protein. Lysates from tsA-201, CAD cells and rat brain tissue were prepared by sonicating samples at 60% pulse for 10 seconds and by centrifugation at 13,000 rpm for 15 minutes at 4° C. […] Western blot quantification was performed using densitometry analysis (Quantity One-BioRad software). […]

[3] = 10.0 μg/i.t.
Description: Injections were given to fully conscious mice using the method described by Hylden and Wilcox (Hylden & Wilcox, 1980). Animals were manually restrained, the dorsal fur of each mouse was shaved, the spinal column was arched, and a 30-gauge needle attached in a PE20 Polyethylene tube to a 25-μl Hamilton microsyringe (Hamilton, Birmingham, UK) was inserted into the subdural space between the L4 and L5 vertebrae. Correct i.t. positioning of the needle tip was confirmed by a characteristic tail-flick response of animal. Intrathecal injections of volumes between 2-10 μl were given over a period between 5-10 seconds.

CFA-injected mice = experiment: CFA-induced persistent inflammatory pain, mechanical hyperalgesia; conditions: acute delivery, 10.0 μg/i.t.
Experimental: Mechanical hyperalgesia was measured using the digital plantar aesthesiometer (DPA, UgoBasile, Varese, Italy). […] Mice were allowed to acclimate for a period of at least 90 minutes. The DPA device was positioned beneath the animal, so that the filament was directly under the plantar surface of the ipsilateral hind paw. Each paw was tested three times per session.

Compound: CC(C)C[C@@H](C=O)NC(=O)[C@H](CC(C)C)NC(=O)[C@H](CC(C)C)NC(=O)OCc1ccccc1 [MG132] (Cbz-Leu-Leu-Leu-aldehyde)
- Cav3.2 ubiquitination signal (Cav3.2 channels [1]): only from immunoprecipitates from cells treated with 5 μM MG132
- ratio of ubiquitinated vs non-ubiquitinated channels (Ub-Cav3.2 channels/Cav3.2 channels), higher MW band (b) (Cav3.2 channels [2]; n=4): 2.80±0.5
- ratio of ubiquitinated vs non-ubiquitinated channels (Ub-Cav3.2 channels/Cav3.2 channels), lower MW band (a) (Cav3.2 channels [2]; n=5): 3.2±1.1

Compound: CC(C)C[C@H](NC(=O)[C@H](CCCNC(=N)N)NC(=O)[C@H](CCCNC(=N)N)NC(=O)[C@H](CC(C)C)NC(=O)[C@H](CCCNC(=N)N)NC(=O)[C@H](CCCCN)NC(=O)[C@H](CCC(=O)O)NC(=O)[C@H](CCC(=O)O)NC(=O)[C@H](CCCNC(=N)N)NC(=O)[C@H](CCCNC(=N)N)NC(=O)[C@H](CCCNC(=N)N)NC(=O)[C@H](C)NC(=O)[C@H](CCC(=O)O)NC(=O)[C@H](CCCNC(=N)N)NC(=O)[C@H](CCCNC(=N)N)NC(=O)[C@H](CCCNC(=N)N)NC(=O)[C@H](CCC(N)=O)NC(=O)[C@H](CCCNC(=N)N)NC(=O)[C@H](CCCNC(=N)N)NC(=O)[C@H](CCCCN)NC(=O)[C@H](CCCCN)NC(=O)[C@H](CCCNC(=N)N)NC(=O)CNC(=O)[C@@H](N)Cc1ccc(O)cc1)C(=O)N[C@@H](CCC(=O)O)C(=O)N[C@@H](CCCNC(=N)N)C(=O)N[C@@H](CCCNC(=N)N)C(=O)N[C@@H](CCCNC(=N)N)C(=O)N[C@@H](CCCNC(=N)N)C(=O)N[C@@H](CCCCN)C(=O)N[C@@H](C)C(=O)N[C@@H](CCC(N)=O)C(=O)O [Tat-3.2-III-IV linker peptide] (H-YGRKKRRQRRREARRREEKRLRRLERRRRKAQ-OH)
- abnormal behavior ([3]; 2.5 μg/μl over 10 seconds): no abnormal behavior was observed
- mice that developed shaking behavior ([3]; 5 μg/μl over 5 seconds): 3 out of 10
- time to termination of shaking behavior after injection ([3]; 5 μg/μl over 5 seconds): ≤ 15 min

Compound: COCC(=O)O[C@]1(CCN(C)CCCc2nc3ccccc3[nH]2)CCc2cc(F)ccc2[C@@H]1C(C)C [mibefradil]
- pain in the CFA model (mechanical withdrawal threshold) (CFA-injected mice): significantly attenuate pain in the CFA model
